Source: US7018993B2, “Antiandrogenic agent” (Chugai Seiyaku Kabushiki Kaisha, priority 2000, dated 2006)
One block for each compound: values may come before it.

Assays:
human androgen receptor [1] = target: T1, human androgen receptor (Homo sapiens, UniProt P10275); experiment: Androgen receptor reporter gene assay for antagonistic effects (inhibition of DHT-induced transcriptional activity, HeLa cells); type: cell-based
T1 construct: expressed in transfected cells; host or cells: HeLa cells
T1 sequence (P10275 1-920): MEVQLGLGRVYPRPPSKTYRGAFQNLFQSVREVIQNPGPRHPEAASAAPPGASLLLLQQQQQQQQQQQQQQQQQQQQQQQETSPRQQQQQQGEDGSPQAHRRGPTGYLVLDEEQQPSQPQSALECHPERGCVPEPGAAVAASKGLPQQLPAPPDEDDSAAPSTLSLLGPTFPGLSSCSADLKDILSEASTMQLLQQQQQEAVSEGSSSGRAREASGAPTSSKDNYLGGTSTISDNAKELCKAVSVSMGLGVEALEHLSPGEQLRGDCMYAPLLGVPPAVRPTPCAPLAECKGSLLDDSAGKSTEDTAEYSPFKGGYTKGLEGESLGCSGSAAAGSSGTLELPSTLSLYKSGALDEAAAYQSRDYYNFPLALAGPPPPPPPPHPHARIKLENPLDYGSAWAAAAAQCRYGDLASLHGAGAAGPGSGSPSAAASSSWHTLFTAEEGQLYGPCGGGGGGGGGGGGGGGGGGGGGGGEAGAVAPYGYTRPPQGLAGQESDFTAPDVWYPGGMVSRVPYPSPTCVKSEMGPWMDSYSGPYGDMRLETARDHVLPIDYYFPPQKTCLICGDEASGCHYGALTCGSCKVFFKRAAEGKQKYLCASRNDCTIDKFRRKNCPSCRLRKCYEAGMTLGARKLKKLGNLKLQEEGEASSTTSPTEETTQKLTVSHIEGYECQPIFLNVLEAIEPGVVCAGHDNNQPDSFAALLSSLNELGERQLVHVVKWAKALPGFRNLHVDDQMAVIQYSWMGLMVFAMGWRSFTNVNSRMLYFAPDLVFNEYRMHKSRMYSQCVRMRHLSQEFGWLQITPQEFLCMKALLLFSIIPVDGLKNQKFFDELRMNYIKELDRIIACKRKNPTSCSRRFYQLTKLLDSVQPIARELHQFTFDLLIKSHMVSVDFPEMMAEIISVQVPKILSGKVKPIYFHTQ
Procedure: Twenty-four hours before transfection, 1.0×10^5 HeLa cells are cultured in a 12-well microplate containing phenol red-free DMEM/5% DCC-FBS. […] To effect this assay, reference may be made to J. Biol. Chem., vol. 270, p.
(§1) Twenty-four hours before transfection, 1.0×10^5 HeLa cells are cultured in a 12-well microplate containing phenol red-free DMEM/5% DCC-FBS.

human androgen receptor [2] = target: T1, human androgen receptor; experiment: Androgen receptor reporter gene assay for agonistic effects (MMTV-Luc, HeLa cells); type: cell-based; settings: 10 μmol/L
Procedure: Twenty-four hours before transfection, 1.0×10^5 HeLa cells (purchased from Dainippon Pharmaceutical Co., Ltd.) are cultured in a 12-well microplate containing phenol red-free Dulbecco's Modified Eagle Medium (phenol red-free DMEM) supplemented with charcoal-treated FBS (DCC-FBS; 5%). […] To effect this assay, reference may be made to J. Biol. Chem., vol. 270, p.
as §1

androgen receptor = androgen receptor (Homo sapiens, UniProt P10275); settings: 10 μmol/L; cited from earlier work
[3] = prostate cancer patients undergoing treatment with flutamide; cited from earlier work
prostate weight = settings: castrated rats, continuous administration for two weeks; cited from earlier work

Compound: CN(C)C(=O)CCCOc1cc(O)cc(CCC[C@@H]2C[C@H]3CC(=O)CC[C@]3(C)[C@H]3CC[C@]4(C)[C@@H](O)CC[C@H]4[C@H]23)c1 [Compound from Example 3, 17β-Hydroxy-7α-(3-(3-hydroxy-5-(3-(N,N-dimethylaminocarbonyl)propoxy)phenyl)propyl)-5α-androstan-3-one]
IC50 (human androgen receptor [1]): 392 nM

Luciferase activity (Relative activity) (human androgen receptor [1]; 1.0 μmol/L compound with 0.1 nmol/L DHT, 48 h, activity given by 0.1 nmol/L DHT set to 100): 29.0 (<50.0)
agonistic effects (human androgen receptor [2]): observed to have agonistic effects
Compound: CC(C)(O)C(=O)Nc1ccc([N+](=O)[O-])c(C(F)(F)F)c1 [Hydroxyflutamide, hydroxyflutamide]
transcriptional activity of androgen receptor (androgen receptor): enhance the transcriptional activity
blood hydroxyflutamide levels [3]: several

Compound: CC(=O)O[C@]1(C(C)=O)CC[C@H]2[C@@H]3C=C(Cl)C4=CC(=O)CC[C@]4(C)[C@H]3CC[C@@]21C [chlormadinone acetate]
prostate weight (prostate weight): increase in their prostate weight

Compound: CC(=O)O[C@]1(C(C)=O)CC[C@H]2[C@@H]3C=C(Cl)C4=CC(=O)[C@@H]5C[C@@H]5[C@]4(C)[C@H]3CC[C@@]21C [cyproterone acetate]
prostate weight (prostate weight): increase in their prostate weight
